Legend:
Molm14 F691L cells = assay: Cell viability assay (CellTiter GLO), Molm14 F691L; assay type: cell-based, human; settings: 48 hours
Method: (§1) FIG. 1. […] Cells were treated with inhibitor at increasing log doses (0.1 nM-10 μM) for 48 hours. Cell viability was analyzed through CellTiter GLO. […] Cells were exposed to increasing amounts of each drug for 2 hours. GAPDH1 represents loading control for phospho-ERK and ERK blots. GAPDH2 represents loading control for phosphor-STAT5, STAT5, phospho-S6 and S6. Each experiment was completed in triplicate. Representative images are shown.
(§2) FIG. 5. […] Cells were dosed with inhibitor at increasing log doses (0.1 nM-10 μM) for 48 hours. Cell viability was analyzed through CellTiter GLO.
(§3) MV-4-11 and parental Molm-14 cells were a gift from Dr. Scott Kogan (University of California, San Francisco). HL60 and K562 cell lines were obtained from Charles Sawyers. […] Stable Ba/F3 lines were generated by retroviral infection as previously described (5). All cell lines were tested to be mycoplasma free and human cell lines were authenticated through STR profiling completed at the University of California, Berkeley.
(§4) Each triplicate was either dosed with drug or DMSO vehicle control. Drug dosing was completed at log doses ranging from 0.1 nM-10 μM. Cell viability was assessed after 48 hours using CellTiter GLO (Promega). Viability values were normalized to the vehicle control average. Numerical IC50 values were calculated in GraphPad Prism 7.

Molm14 D835Y cells = assay: Cell viability assay (CellTiter GLO), Molm14 D835Y; assay type: cell-based, human; settings: 48 hours
Method: as §1, §2, §3, §4

[1] = system: Molm-14 F691L cells stably expressing firefly luciferase; assay: Circulating tumor model, Molm14 F691L luciferase; assay type: in vivo; settings: mice
Method: FIG. 7. […] Molm14 F691L stably expressing FLuc9 were engrafted in mice through tail vein injection. Mice were imaged once every three days.
Molm-14 F691L cells stably expressing firefly luciferase were injected into the tail vein of NSG mice and tumor growth was monitored through bioluminescence.

[2] = system: normal donor bone marrow mononuclear cells (BM-MNC); assay: Colony forming unit assay of normal bone marrow
Method: FIG. 2. […] Normal bone marrow mononuclear cells (BM-MNC) were purchased from StemCell Technologies. 30,000 cells were plated in methylcellulose with increasing concentrations of either gilteritinib, 1, or 2. Blast forming unit-erythroid (BFU-E) and colony forming unit-granulocyte (CFU-G) were counted after 14 days incubation. Assay was completed in triplicate with three independent blood donors. Data shown is cumulated from all independent experiments. Error bars show one standard deviation and p values compared to control were calculated using a Student's t-test. NS indicates an insignificant p value, * indicates p value≤0.05, ** indicates p value≤0.01, *** indicates p value≤0.001, **** indicates p value≤0.0001
Bone marrow mononuclear cells (BM-MNC) of healthy donors (n=3) were purchased from StemCell Technologies (Vancouver, Canada). Cells were plated in a 35 mm dish in triplicate with methylcellulose medium at a concentration previously determined to form approximately 100 total colonies, usually 30,000 cells/mL and containing the appropriate amount of drug. Dishes were incubated for 14-15 days and visually assessed for erythrocyte burst-forming units and granulocyte-macrophage colony-forming units.

activity in cell viability assay (IC50, FIG. 1A/5B), in words (Molm14 F691L cells) | activity in cell viability assay (IC50, FIG. 1A/5B), in words (Molm14 D835Y cells) | SMILES | maximally tolerated dose [1] | impact on CFU-G counts/growth ([2]; equivalent multiples of Molm14 IC50, 14 days, three healthy donors) | impact on BFU-E counts/growth ([2]; human, 14 days)
severely diminished activity | severely diminished activity | CC(C)(C)c1cc(NC(=O)Nc2ccc(-c3cn4c(n3)sc3cc(OCCN5CCOCC5)ccc34)cc2)no1 [quizartinib, reference compound] |  |  | 
 |  | CCc1nc(C(N)=O)c(Nc2ccc(N3CCC(N4CCN(C)CC4)CC3)c(OC)c2)nc1NC1CCOCC1 [gilteritinib, reference compound] | 33 mg/kg | substantial impairment in BFU-E and CFU-G counts at 50× and 100×IC50 | substantial impairment in BFU-E and CFU-G counts at 50× and 100×IC50

From patent US20260232684A1, “FLT3 INHIBITORS AND METHODS OF USING THE SAME” (BIOVENTURES, LLC, priority 2023, published 2026)
